Measured values from patent publication US9181305B2, “Exendin-4 peptide analogues” (SANOFI, priority 2012, dated 2015).

Tests used:
female NMRI-mice [1] = test: Gastric emptying and intestinal passage in mice; assay type: in vivo; settings: 0.02 mg/kg s.c., 30 min prior to coloured bolus; p<0.0001
Protocol: Female NMRI-mice of a body weight between 20 and 30 g were used. Mice were adapted to housing conditions for at least one week. Mice were overnight fasted, while water remained available all the time. On the study day, mice were weighed, single-caged and allowed access to 500 mg of feed for 30 min, while water was removed. At the end of the 30 min feeding period, remaining feed was removed and weighed. 60 min later, a coloured, non-caloric bolus was instilled via gavage into the stomach. The test product or its vehicle in the control group was administered subcutaneously, to reach Cmax when coloured bolus was administered. After another 30 min, the animals were sacrificed and the stomach and the small intestine prepared. The filled stomach was weighed, emptied, carefully cleaned and dried and reweighed. The calculated stomach content indicated the degree of gastric emptying. The small intestine was straightened without force and measured in length. Then the distance from the gastric beginning of the gut to the tip of the farthest travelled intestinal content bolus was measured. The intestinal passage was given as relation in percent of the latter distance and the total length of the small intestine. Statistical analyses were performed with Everstat 6.0 by Student's T-Test. Differences were considered statistically significant at the p<0.05 level. […]

[2] = biological target: T1, human GLP-1 receptor (hGLP-1 R) (Homo sapiens, UniProt P43220); test: cAMP response (HTRF) of HEK-293 cells stably expressing human GLP-1 receptor; assay type: cell-based; settings: HEK-293 cells expressing human GLP-1 receptor, cAMP formation
T1 construct: expressed in transfected cells; host or cells: HEK-293
T1 sequence (P43220 24-463): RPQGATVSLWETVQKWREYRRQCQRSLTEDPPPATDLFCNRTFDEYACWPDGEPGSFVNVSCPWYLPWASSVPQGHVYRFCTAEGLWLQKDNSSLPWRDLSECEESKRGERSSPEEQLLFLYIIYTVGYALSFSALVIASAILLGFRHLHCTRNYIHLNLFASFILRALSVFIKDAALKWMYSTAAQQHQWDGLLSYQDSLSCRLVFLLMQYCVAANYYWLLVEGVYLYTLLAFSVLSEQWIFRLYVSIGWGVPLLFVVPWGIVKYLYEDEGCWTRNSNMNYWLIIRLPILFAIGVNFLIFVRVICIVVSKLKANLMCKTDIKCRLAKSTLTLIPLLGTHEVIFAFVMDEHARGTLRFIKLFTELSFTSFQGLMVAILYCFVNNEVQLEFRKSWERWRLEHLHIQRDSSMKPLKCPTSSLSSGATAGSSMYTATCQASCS
Method in brief: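 Detached HEK-293 cells stably expressing the receptor were suspended in HBSS with 20 mM HEPES, 0.1% BSA and 2 mM IBMX. Test compound was added for 30 min at room temperature, and cellular cAMP was quantified by HTRF.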

[3] = system: female diet-induced obese C57BL/6NCrl mice; test: Single subcutaneous treatment, blood glucose in diet-induced obese mice; assay type: in vivo; settings: single s.c. 100 μg/kg, fed DIO mice (9 months on high-fat diet)
Protocol: Female C57BL/6NCrl mice were housed in groups (n=8) and had ad-libitum access to high-fat diet and water. Initial blood samples were taken just before administration (s.c.) of vehicle (phosphate buffer solution) or the exendin-4 analogue (e.g. SEQ ID NO: (7)) (100 μg/kg in phosphate buffer) in fed DIO mice. The volume of administration was 5 mL/kg. The animals had access to high-fat diet and water during the experiment, food consumption was determined at all time points for blood sampling. Blood glucose levels were measured at t=0.5 h, t=1 h, t=2 h, t=4 h, t=6 h, t=8 h, and t=24 h. Blood sampling was performed by tail incision without anaesthesia. Statistical analyses were performed with Everstat 6.0 by repeated measures two-way ANOVA and Dunnetts post-hoc analyses. Differences were considered statistically significant at the p<0.05 level.

female NMRI-mice [4] = test: Automated assessment of feed intake in mice (22 hours); assay type: in vivo
Protocol: Female NMRI-mice of a body weight between 20 and 30 g were used. Mice were adapted to housing conditions for at least one week and for at least one day single-caged in the assessment equipment, when basal data were recorded simultaneously. On the study day, test product was administered subcutaneously close to the lights-off phase (12 h lights off) and assessment of feed consumption was directly started afterwards. Assessment included continued monitoring (every 30 min) over 22 hours. Repetition of this procedure over several days was possible. Restriction of assessment to 22 hours was for practical reason to allow for reweighing of animals, refilling of feed and water and drug administration between procedures. Results could be assessed as cumulated data over 22 hours or differentiated to 30 min intervals. Statistical analyses were performed with Everstat 6.0 by two-way ANOVA on repeated measures and Dunnetts post-hoc analyses. Differences were considered statistically significant at the p<0.05 level. Fed female NMRI-mice, weighing on average 27 g, were administered 0.01 or 0.1 mg/kg of SEQ ID NO: (7) or phosphate buffered saline (vehicle control) subcutaneously, directly prior to start of feeding monitoring. Lights-off phase (dark phase) started 4 hours later.

physchem = assay type: physicochemical

CCCCCCCCCCCCCCCC(=O)N[C@@H](CCC(=O)NCCCC[C@H](NC(=O)[C@H](CO)NC(=O)[C@@H]1CCCN1C(=O)[C@@H]1CCCN1C(=O)[C@@H]1CCCN1C(=O)[C@H](C)NC(=O)CNC(=O)[C@H](CO)NC(=O)[C@H](CO)NC(=O)[C@@H]1CCCN1C(=O)CNC(=O)CNC(=O)[C@H](CC(N)=O)NC(=O)[C@H](CCCCN)NC(=O)[C@H](CC(C)C)NC(=O)[C@H](Cc1c[nH]c2ccccc12)NC(=O)[C@H](CCC(=O)O)NC(=O)[C@@H](NC(=O)[C@H](Cc1ccccc1)NC(=O)[C@H](CC(=O)O)NC(=O)[C@H](CCC(N)=O)NC(=O)[C@H](C)NC(=O)[C@H](CCCNC(=N)N)NC(=O)[C@H](CCCNC(=N)N)NC(=O)[C@H](CO)NC(=O)[C@H](CC(=O)O)NC(=O)[C@H](CCSC)NC(=O)[C@H](CCC(N)=O)NC(=O)[C@H](CCCCN)NC(=O)[C@H](CO)NC(=O)[C@H](CC(C)C)NC(=O)[C@H](CC(=O)O)NC(=O)[C@H](CO)NC(=O)[C@@H](NC(=O)[C@H](Cc1ccccc1)NC(=O)[C@@H](NC(=O)CNC(=O)[C@H](CCC(N)=O)NC(=O)[C@@H](CO)NC(=O)[C@@H](N)Cc1c[nH]cn1)[C@@H](C)O)[C@@H](C)O)[C@@H](C)CC)C(N)=O)C(=O)O [(7)]
reduction of intestinal passage (female NMRI-mice [1]): 54% | EC50 [2]: 5.2 pM | blood glucose over 24 h compared to vehicle-treated control animals [3]: significantly decreased | reduction of feed intake at the end of the study (22 hours) (female NMRI-mice [4]; 0.01 mg/kg s.c., p=0.0027): 17% | reduction of feed intake at the end of the study (22 hours) (female NMRI-mice [4]; 0.1 mg/kg s.c., p<0.0001): 37% | solubility at 2 h (physchem; pH 4.5): > 1000 µg/mL | solubility at 2 h (physchem; pH 7.4): > 1000 µg/mL
